Test results published in patent publication USRE37886E1, “1-(1,2-Disubstituted piperidinyl)-4-substituted piperazine derivatives” (Janssen Pharmaceuticals, N.V., priority 1995, dated 2002).
Each block holds one compound with its values, some of them ahead of it.

What was measured:
[1] = tested on: substance-P induced relaxation of the pig coronary arteries; test: Antagonism of substance-P induced relaxation of the pig coronary arteries; assay type: cell-based; settings: concentration at which 50% of the response to 10^−9 M substance P was inhibited, 30 minutes incubation, prostaglandin F2a precontracted segments
Excerpt: (§1) The compounds of the present invention are potent inhibitors of neurokinin-mediated effects, in particular those mediated via the NK1 receptor, and may therefore be described as tachykinin antagonists, especially as substance P antagonists, as indicated in vitro by the antagonism of substance P induced relaxation of pig coronary arteries which is described hereinafter. The binding affinity of the present compounds for the human, guinea-pig and gerbil neurokinin receptors may be determined in vitro in a receptor binding test using ^3H-substance-P as radioligand. The subject compounds also show substance-P antagonistic activity in vivo as may be evidenced by, for instance, the antagonism of substance P-induced plasma extravasation in guinea-pigs, or the antagonism of drug-induced emesis in ferrets (Watson et al., Br. J. Pharmacol. 115, 84-94, 1995).
Antagonism of substance-P induced relaxation of the pig coronary arteries
Segments of coronary artieries taken from pigs (killed by injection of an overdose of sodium pentobarbital) were inverted and mounted for recordign of isometric tension in organ baths (volume 20 ml) with the endothelium at the outside. The preparations were bathed in Krebs-Henseleit solution. The solution was kept at 37° C. and gassed with a mixture of O2/CO2 (95/5). After stabilisation of the preparations, prostaglandin F2a (10^−5 M) was administered to induce a contraction. This was repeated until contractivle responses became stable. Then prostaglandin F2a was again administered and substance P(3×10^−10 M and 10^−9 M cumulatively) was added. Substance P induced endothelium dependent relaxations. After washing away the agonists, a known concentratin of a compound of formula (I) was added. After an incubation period of 30 minutes, prostaglandin F2a ([…]) and the same concentrations of sbustance P as described above were again administered in the presence of the compound to be tested. Relaxations caused by substance P were expressed as relaxations under control conditions, and percent inhibition of the response to […] substance P was taken as a measure of the antagonistic activity of the compound to be tested. Table 6 lists the IC50 values (concentration at which 50% of the response to […] substance P was inhibited by the test compound) for the tested compounds.

[2] = tested on: substance P induced plasma extravasation; test: Antagonism of substance P induced plasma extravasation in guinea-pigs; assay type: in vivo; settings: lowest active dose, female guinea-pigs; for LAD nose: compound 1 hour prior to substance P (2 mg/kg, femoral artery), blue colouring of nose 10 minutes after challenge; for LAD conjunctiva / LAD forepaws / LAD trachea / LAD urinary bladder: compound 1 hour prior to substance P; for LAD conjunctiva: blue colouring of conjunctiva 10 minutes after challenge; for LAD forepaws: blue colouring of forepaws 10 minutes after challenge; for LAD trachea: blue colouring of trachea 30 minutes after challenge; for LAD urinary bladder: blue colouring of urinary bladder 30 minutes after challenge
Excerpt: as §1
Antagonism of substance P induced plasma extravasation in guinea-pigs
Plasma extravasation was induced by injection of substance P (2 mg/kg) in the femoral artery of female guinea-pigs. Evans Blue dye (30 mg/kg) was injected simultaneously. The test compound or solvent was administered 1 hour prior to substance P injection. 10 minutes after challenge, the aminals were checked for blue colouring (a direct measure for plasma extravasation) of the nose, the forepaws, and the conjectiva. 30 minutes after challenge, the animals were sacrificed by CO2 gas inhalation and checked for blue colouring of the trachea and the urinary bladder. […]

Compound: Cc1cc(C)cc(COC(CN2CCN(C3CCN(C(=O)c4cc(C(F)(F)F)cc(C(F)(F)F)c4)C(Cc4ccccc4)C3)CC2)c2ccccc2)c1 (racemic) [Compound 87]
IC50 [1]: 1.9 nM | LAD nose [2]: 10.0 mg/kg | LAD conjunctiva [2]: 10.0 mg/kg | LAD forepaws [2]: 10.0 mg/kg | LAD trachea [2]: 10.0 mg/kg | LAD urinary bladder [2]: >40 mg/kg

Compound: O=C(O)C=CC(=O)O.O=C(O)C=CC(=O)O.O=C(c1cc(C(F)(F)F)cc(C(F)(F)F)c1)N1CCC(N2CCCN(Cc3ccccc3)CC2)CC1Cc1ccccc1 (racemic) [Compound 68]
IC50 [1]: 5.88 nM | LAD nose [2]: 10.0 mg/kg | LAD conjunctiva [2]: 40.0 mg/kg | LAD forepaws [2]: 10.0 mg/kg | LAD trachea [2]: >40 mg/kg | LAD urinary bladder [2]: >40 mg/kg

Compound: (−)-(A)-trans-4-[1-[3,5-bis(trifluoromethyl) benzoyl]-2-(phenylmethyl)-4-piperidinyl]-N-(2,6-dimethylphenyl)-1-piperazine acetamide [Compound 26]
IC50 [1]: 2.75 nM | LAD nose [2]: 10.0 mg/kg | LAD conjunctiva [2]: 20.0 mg/kg | LAD forepaws [2]: 10.0 mg/kg | LAD trachea [2]: 40.0 mg/kg | LAD urinary bladder [2]: 20.0 mg/kg

Compound: (+)-(B)-trans-4-[1-[3,5-bis(trifluoromethyl)benzoyl]-2-(phenylmethyl)-4-piperidinyl]-N-(2,6-dimethylphenyl)-1- piperazine acetamide [Compound 27]
IC50 [1]: 0.13 nM | LAD nose [2]: 0.63 mg/kg | LAD conjunctiva [2]: 0.63 mg/kg | LAD forepaws [2]: 0.63 mg/kg | LAD trachea [2]: 0.63 mg/kg | LAD urinary bladder [2]: 0.63 mg/kg

IC50 ([1]; Sus scrofa, 0.5 h): 2.08 nM
Compound: Cc1cccc(C)c1NC(=O)CN1CCN([C@H]2CCN(C(=O)c3cc(C(F)(F)F)cc(C(F)(F)F)c3)[C@@H](Cc3cc(F)cc(F)c3)C2)CC1 (racemic) [Compound 132, (±)-cis-4-[1-[3,5-bis (trifluoromethyl)benzoyl]-2-[(3,5-difluorophenyl)methyl]-4-piperidinyl]-N-(2,6-dimethylphenyl)-1-piperazineacetamide]
LAD nose [2]: 10.0 mg/kg | LAD conjunctiva [2]: 10.0 mg/kg | LAD forepaws [2]: 10.0 mg/kg | LAD trachea [2]: 10.0 mg/kg | LAD urinary bladder [2]: 10.0 mg/kg

Compound: Cc1cccc(C)c1NC(=O)CN1CCN(C2CCN(C(=O)c3cc(C(F)(F)F)cc(C(F)(F)F)c3)C(Cc3ccc(C(F)(F)F)cc3)C2)CC1.O=C(O)/C=C/C(=O)O (single isomer, unassigned) [Compound 136]
IC50 [1]: 0.31 nM | LAD nose [2]: 2.50 mg/kg | LAD conjunctiva [2]: 2.50 mg/kg | LAD forepaws [2]: 2.50 mg/kg | LAD trachea [2]: 2.50 mg/kg | LAD urinary bladder [2]: 2.50 mg/kg

Compound: O=C(CN1CCN(C2CCN(C(=O)c3cc(C(F)(F)F)cc(C(F)(F)F)c3)C(Cc3ccccc3)C2)CC1)NC(c1ccccc1)c1ccccc1 (centres unmarked) [Compound 33]
IC50 [1]: 0.6 nM | LAD nose [2]: 2.50 mg/kg | LAD conjunctiva [2]: 2.50 mg/kg | LAD forepaws [2]: 10.0 mg/kg | LAD trachea [2]: >40 mg/kg | LAD urinary bladder [2]: >40 mg/kg

Compound: Cc1cccc(C)c1NC(=O)CN1CCN([C@@H]2CCN(C(=O)c3cc(C(F)(F)F)cc(C(F)(F)F)c3)[C@@H](Cc3cc(F)cc(F)c3)C2)CC1 (racemic) [Compound 133, (±)-trans-4-[1-[3,5-bis(trifluoromethyl)benzoyl]-2-[(3,5-difluorophenyl)methyl]-4-piperdinyl]-N-(2,6-dimethylphenyl)-1-piperazineacetamide]
IC50 [1]: 0.62 nM | LAD nose [2]: 2.50 mg/kg | LAD conjunctiva [2]: 2.50 mg/kg | LAD forepaws [2]: 2.50 mg/kg | LAD trachea [2]: 10.0 mg/kg | LAD urinary bladder [2]: 10.0 mg/kg

Compound: O=C(CN1CCN(C2CCN(C(=O)c3cc(C(F)(F)F)cc(C(F)(F)F)c3)C(Cc3ccccc3)C2)CC1)Nc1c(Cl)cccc1Cl (racemic) [Compound 45]
IC50 [1]: 0.15 nM | LAD nose [2]: 0.63 mg/kg | LAD conjunctiva [2]: 0.63 mg/kg | LAD forepaws [2]: 0.63 mg/kg | LAD trachea [2]: >40 mg/kg | LAD urinary bladder [2]: 2.50 mg/kg

Compound: Cc1cccc(C)c1NC(=O)CN1CCN(C2CCN(C(=O)c3cc(C(F)(F)F)cc(C(F)(F)F)c3)C(Cc3ccc(F)c(F)c3)C2)CC1 (racemic) [Compound 134]
IC50 [1]: 0.04 nM | LAD nose [2]: 10.0 mg/kg | LAD conjunctiva [2]: 10.0 mg/kg | LAD forepaws [2]: 10.0 mg/kg | LAD trachea [2]: 10.0 mg/kg | LAD urinary bladder [2]: 10.0 mg/kg

Compound: O=C(CN1CCN(C2CCN(C(=O)c3cc(C(F)(F)F)cc(C(F)(F)F)c3)C(Cc3ccccc3)C2)CC1)N1CCc2ccccc21 (racemic) [Compound 107]
IC50 [1]: 0.96 nM | LAD nose [2]: 2.50 mg/kg | LAD conjunctiva [2]: 2.50 mg/kg | LAD forepaws [2]: 2.50 mg/kg | LAD trachea [2]: 2.50 mg/kg | LAD urinary bladder [2]: 10.0 mg/kg

Compound: Cc1ncc(Cn2c(N3CCN(C4CCN(C(=O)c5cc(C(F)(F)F)cc(C(F)(F)F)c5)C(Cc5ccccc5)C4)CC3)nc3ccccc32)o1 (centres unmarked) [Compound 24]
IC50 [1]: 0.64 nM | LAD nose [2]: 2.50 mg/kg | LAD conjunctiva [2]: 10.0 mg/kg | LAD forepaws [2]: 2.50 mg/kg | LAD trachea [2]: 10.0 mg/kg | LAD urinary bladder [2]: >40 mg/kg

Compound: O=C(c1cc(C(F)(F)F)cc(C(F)(F)F)c1)N1CCC(N2CCCN(Cc3ccccc3)CC2)CC1Cc1ccccc1 (racemic) [Compound 63]
IC50 [1]: 8.38 nM

IC50 ([1]; Sus scrofa, 0.5 h): 4.99 nM
Compound: CN(CC(CCN1CCN([C@H]2CCN(C(=O)c3cc(C(F)(F)F)cc(C(F)(F)F)c3)[C@@H](Cc3ccccc3)C2)CC1)c1ccc(Cl)c(Cl)c1)C(=O)c1ccccc1 (mixture of isomers) [Compound 93, (±)-cis-N-[4-[4-[1-[3,5-bis(trifluoromethyl)benzoyl]-2-(phenylmethyl)-4-piperidinyl]-1-piperazinyl]-2-(3,4-dichlorophenyl)butyl]-N-Methylbenzamide (E)-2-butenedioate (1:2)]

Compound: CC(C)NC(=O)CN1CCN(C2CCN(C(=O)c3cc(C(F)(F)F)cc(C(F)(F)F)c3)C(Cc3ccccc3)C2)CC1 (racemic) [Compound 76]
IC50 [1]: 14.1 nM

Compound: O=C(CN1CCN(C2CCN(C(=O)c3cc(C(F)(F)F)cc(C(F)(F)F)c3)C(Cc3ccccc3)C2)CC1)C1CCc2ccccc21 (racemic) [Compound 99]
IC50 [1]: 1.46 nM

Compound: O=C(CN1CCN(C2CCN(C(=O)c3cc(C(F)(F)F)cc(C(F)(F)F)c3)C(Cc3ccccc3)C2)CC1)N1Cc2ccccc2C1 (racemic) [Compound 122]
IC50 [1]: 1.68 nM

Compound: O=C(c1cc(C(F)(F)F)cc(C(F)(F)F)c1)N1CCC(N2CCN(CC(O)c3ccccc3)CC2)CC1Cc1ccccc1 (racemic) [Compound 86]
IC50 [1]: 2.13 nM

Compound: Cc1cccc(C)c1NC(=O)CN1CCCN(C2CCN(C(=O)c3cc(C(F)(F)F)cc(C(F)(F)F)c3)C(Cc3ccccc3)C2)CC1 (racemic) [Compound 65]
IC50 [1]: 6.39 nM

Compound: Cc1cc(C)cc(C(=O)NCCN2CCN(C3CCN(C(=O)c4cc(C(F)(F)F)cc(C(F)(F)F)c4)C(Cc4ccccc4)C3)CC2)c1 (racemic) [Compound 115]
IC50 [1]: 2.23 nM
